Results taken from EP0663826B1, “AMINO ACIDS CONTAINING PARENTERAL FORMULATIONS FOR THE TREATMENT OF HYPOTENSION AND RELATED PATHOLOGIES” (BOARD OF REGENTS THE UNIVERSITY OF TEXAS SYSTEM, priority 1991, dated 1993).
“And” between values parts separate entries of the source, which are not always exact repeats. Identical values can stand only once. Like-named read-outs stand apart in the source and are kept apart here. *1 amine or outer side, *2 acyl side, *3 side chain or, on linkers, in order; H or OH if unused. Where a SMILES comes first, the peptide text is derived from it. Bridges are numbered along the chain shown (N, C = ends). Roman numbers before positions name the chains, in order. [ ]: non-standard residue; d: D form. Actinocin(9to1) = Cc1c2oc3c(C)ccc(C(=O)[*:1])c3nc-2c(C(=O)[*:2])c(N)c1=O; NMeV = CN[C@H](C(=O)O)C(C)C; Sar = CNCC(=O)O

Legend:
[1] = tested on: hypotension associated with the administration of TNF in the dog; experiment: TNF-induced hypotension in the dog; format: in vivo, dogs; conditions: dog; Figure 7
Method: Recombinant human TNF, specific activity 2 x 10^7 units/mg, was from the Dainippon Chemical Corporation, Tokyo, Japan. TNF was administered at a dose of 10 µg//kg in a volume of 10 ml of phosphate buffered saline containing 17 mg/ml of dog albumin. […] Arginine was obtained from Sigma Chemical Company, St. Louis, Mo.
Four conditioned mongrel dogs, 2 males and 2 females, weighing 28 to 30 kg, were studied. Care of the animals were in accordance with the recommendations of the American Association for Accreditation of Laboratory Animals [DHEW(DHHS) publication no. (NIH) 78-23, revised, 1978]. On the day of the experiment, the dogs were fasted overnight. They were anesthetized with phenobarbital (25 mg/kg). The animals were then intubated orally with a #10 fr. endotracheal tube and ventilated with a Harvard pump ventilator at a rate of 14 breaths per minute and a tidal volume of 15 ml/kg. An arterial line was percutaneously placed in the femoral artery on the day of the experiment.
Mean (electronic) and phasic systemic arterial pressures (SAP) were continuously recorded on a Hewlett-Packard recording system (model 7758B) using strain gauge manometers (Hewlett-Packard model 1290A) which were connected to the arterial line. Heart rate (HR) was determined from an EKG tracing and continuously recorded on the Hewlett-Packard recording system. Oxyhemoglobin saturation (SaO2) was obtained using a pulse oximeter (BIOX 111, Boulder, CO). Continuous time-series records of SAP, HR, and SaO2 were obtained using a Lab Master analog-to-digital convertor (16 channel, 12 bit, 30 kHz; Scientific Solutions, Inc.) sampling at 55 Hz and storing the 6 sec averages on a magnetic disk.

ET shock (lethal dose) = experiment: Reversal of ET shock (lethal dose) by multiple doses of NAA; format: in vivo
Method: The reversal of ET shock (lethal dose) by Nω-aminoarginine (NAA) for 4 hrs. […] Figure 8 depicts systemic arterial pressure (SAP) versus time (min). ET (2 mg/kg), a lethal dose, was infused over 60 min. and NAA administered at 97, 165, and 374 min. to maintain blood pressure. The animal was survived for 24 hours and then autopsied.

[2] = tested on: Actinomycin D-Treated L929 Cells; experiment: Cytolytic activity of rh-TNF against L929 cells; format: cell-based, murine; conditions: murine L929 cells
Method: TNF bioactivity was measured by the cytotoxicity towards murine L929 cells, in vitro. […]

[3] = tested on: IL-1-Induced Hypotension in Dogs; experiment: IL-1-induced hypotension in dogs; format: in vivo; conditions: for MAP increase after NAA: NAA 20 mg/kg iv single bolus
Method: • FIGURE 1 - Reversal of hypotension associated with the administration of IL-1 to dogs. The tracing shown is a representative experiment that was repeated four times. Each dog was anesthetized and […] as described herein, and baseline cardiovascular data were monitored for 30 minutes. IL-1 was dissolved in phosphate-buffered saline (pH 7.4) containing 1 mg/ml of dog albumin, and the resulting solution was infused intravenously for three minutes to deliver a dose of 50 µg/kg. MAP was continuously monitored; when a stable nadir was reached and maintained for more than 10 minutes or when MAP dropped below 50 mm Hg, NAA (20 mg/kg in 10 ml phosphate-buffered saline) was administered by intravenous infusion for 30 seconds. Sixty minutes after MAP was restored to baseline or higher values, L-arginine (400 mg/kg in 20 ml phosphate-buffered saline) was administered by slow intravenous infusion for 5 minutes. Anesthetized dogs given IL-1 (50 µg/kg) developed a progressive, moderately severe hypotension, with MAP decreasing from a baseline of 111 +/- 7 mm Hg to 80 +/- 2 mm Hg within about 3 hours. Hypotension was rapidly reversed by the intravenous administration of a single bolus dose of NAA (20 mg/kg, 88 umol/kg), with MAP increasing by from 46 +/- 9 mm Hg (58%_ to 125 +/- 8 mm Hg. • FIGURES 2A, 2B, 2C - Inhibition of IL-1-activated NO· production by N^ω-substituted arginine analogues. Figure 2A: Comparison of nitrite synthesis inhibition in smooth muscle cells by the L-isomers of NAA, NMA, and NNA and by the D-isomer of NMA. Figure 2B: Concentration dependence of nitrite synthesis inhibition in smooth muscle cells by NAA as a function of different L-arginine concentration in the culture medium. Confluent monolayers of smooth muscle cells in 96-well microtiter plates were treated with a combination of 100 ng/ml IL-1 and 50 ng/ml IFN-γ for 24 hours. Cells were then washed with Hanks' balanced salt solution, and fresh medium containing the indicated concentration of L-arginine was added. Points indicate means ± SD of nitrite production, expressed as percent of control, during a 16-hour exposure to arginine analogues (n = 3-4). Figure 2C: Effect of NAA on smooth muscle cell NO· synthase. Cytosol from cytokine-induced smooth muscle cells (∼2 µg protein) was incubated with 1 mM L-arginine, 0.5 mM NADPH, 1 mM dithiothreitol, 10 µM flavin-adenine dinucleotide, 10 µM tetrahydrobiopterin, and 0.1 U/ml dihydropteridine reductase in a total volume of 100 µL. The time course of Fe^2+-myoglobin oxidation was measured in the absence (control) or presence of 300 µM NAA (+NAA). […] FIGURE A: Time course of nitrite synthesis elicited by 40 ng/mL IL-1 alone (open circles) and by IL-1 in the presence of 50 ng/ml IFN-γ (open triangles). […] Inclusion of IL-1 receptor antagonist (40 µg/mL; filled symbols) in the culture medium inhibited nitrite production stimulated by both IL-1 and IL-1 plus IFN-γ. FIGURE B: IL-1 concentration dependence for smooth muscle cell nitrite production. Data points indicate nitrite produced during a 29-hour incubation with the indicated concentration of IL-1 alone (open circles) or in the presence of IL-1 plus 50 ng/mL IFN-γ (open triangles). All values are means ± SD for nitrite production by confluent smooth muscle cell monolayers grown in 96-well microtiter plates (60-80 X 10^3 cells per well; n = 3-4).
Experiments were conducted on healthy mongrel dogs that were free of microfilaria and weighed 25-28 kg each. […]

[4] = tested on: nitric oxide synthase in rat aortic smooth muscle cells; experiment: Induction and assay of nitrite synthesis in smooth muscle cells; format: cell-based
Method: Rat aortic smooth muscle cells were incubated with RPMI-1640 medium containing 10% bovine calf serum, 25 mM HEPES buffer (pH 7.4), 2 mM glutamine, […], and IL-1, IFN-γ, and various inhibitors at the concentrations indicated in the figure legends. At the desired times, nitrite concentration in the culture medium was measured using the standard Griess assay adapted to a 96-well microtiter plate reader.^36 The Griess assay is also described in Gross et al.^37 (1991). Thus, 100 µL of Griess reagent (0.5% sulfanilic acid, 0.05% naphthalenediamine, and 2.5% phosphoric acid) was added to an equal volume of culture medium, and the OD550 was measured and related to nitrite concentration by reference to a standard curve. […]
Rat aortic smooth muscle cells were incubated with RPMI-1640 medium containing 10% bovine calf serum, 25 mM HEPES buffer (pH 7.4), 2mM glutamine, 80 U/mL penicillin, 80 µg/mL streptomycin, 2 µg/mL fungizone, and IL-1, IFN-γ, and various inhibitors at the concentrations indicated in the figure legends. At the desired times, nitrite concentration in the culture medium was measured using the standard Griess assay (Green, L., et al. Anal. Biochem. 126:131-138, 1982) adapted to a 96-well microtiter plate reader (Gross, S.S., et al. Biochem. Biophys. Res. Commun. 178:823-829, 1991). […]

[5] = Cell respiration assay (MTT); format: cell-based; conditions: rat, aortic smooth muscle cells; read-out: MTT reduction [mean ± SD], of that measured in control cells treated with IL-1 alone
Excerpt: The extent of reduction of MTT to formazan within cells, quantitated by measurement of the optical density at 550 nm (OD550), was taken as an indicator of cellular respiration.

Structure (SMILES): N=C(NN)NCCC[C@H](N)C(=O)O [NAA, N^ω-amino-L-arginine]
- reversing the hypotension associated with TNF administration [1]: as effective as NMMA
- survival of the animal (ET shock (lethal dose); ET 2 mg/kg, multiple doses of NAA, then autopsied): 24 h
- pathological changes in liver, lungs, heart, brain, bowel or kidney (ET shock (lethal dose); autopsy after 24 hours): No pathological changes were observed
- effect on the cytolytic effect of TNF towards tumor cells in vitro [2]: did not alter
- systemic vascular resistance after injection of NAA, higher than baseline ([3]; IL-1-treated dogs, average): 43%
- MAP increase after NAA ([3]; anesthetized dogs (n = 4) made hypotensive with IL-1 50 µg/kg): 46 ± 9 mm Hg and 46 +/- 9 mm Hg
- average increase in MAP above baseline ([3]; control dogs not given IL-1, NAA): 20.1 ± 3.8 mm Hg
- MAP after NAA ([3]; dogs given IL-1 50 µg/kg (MAP 80 ± 2 before NAA), NAA 20 mg/kg iv): 125 ± 8 mm Hg and 125 +/- 8 mm Hg
- average increase of MAP following NAA above the pre-IL-1 baseline MAP ([3]; dogs given IL-1 50 µg/kg, NAA 20 mg/kg): 14.3 ± 7.7 mm
- MAP increase after NAA ([3]; dogs given IL-1 50 µg/kg): 58%
- reduction in cardiac output compared with that after IL-1 ([3]; dogs treated with IL-1, then NAA, P = .037): 25.2%
- cardiac output after NAA ([3]; dogs treated with IL-1, then NAA, baseline 2.25, P = .204): 1.93 L/min
- decrease in cardiac output ([3]; dogs treated with NAA alone, P = .046): 29.2%
- duration physiologically acceptable MAP readings maintained ([3]; second and third injections of NAA (20 mg/kg), cytokine-treated dogs): up to 7 hours
- duration MAP maintained at baseline or higher levels ([3]; single injections of NAA (20 mg/kg) in cytokine-treated dogs, no L-arginine): up to 60 minutes

Structure (SMILES): C[C@@H]1C[C@@H]([C@H](O)CC2CC(=O)NC(=O)C2)C(=O)[C@@H](C)C1 [cycloheximide]
- nitrite produced [4]: less than 0.1 nmol

Structure (SMILES): Cc1c2oc3c(C)ccc(C(=O)N[C@@H]4C(=O)N[C@H](C(C)C)C(=O)N5CCC[C@H]5C(=O)N(C)CC(=O)N(C)[C@@H](C(C)C)C(=O)O[C@@H]4C)c3nc-2c(C(=O)N[C@@H]2C(=O)N[C@H](C(C)C)C(=O)N3CCC[C@H]3C(=O)N(C)CC(=O)N(C)[C@@H](C(C)C)C(=O)O[C@@H]2C)c(N)c1=O [dactinomycin] (I: T[dV]P[Sar][NMeV] / II: T[dV]P[Sar][NMeV]; ester I:1-I:C, II:1-II:C; linker I:N-II:N via Actinocin(9to1))
- nitrite produced ([4]; cells cultured 14 hours with IL-1 (100 ng/mL) and IFN-γ (50 ng/mL) plus 0.5 mg/mL dactinomycin or 1 mg/mL cycloheximide, then 16 hours in cytokine-free medium, control 2.52): less than 0.1 nmol
- viability [5]: 101%
